One data set has as its system Pyrenophora teres. As to the kind of experiment: In vivo preventive test on Pyrenophora teres (net blotch on barley). To be noted: 240 h, 500 ppm of active ingredient, preventive spray on barley, evaluated 10 days after inoculation, read-out: efficacy. Put shortly:
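Young barley plants sprayed preventively with compound formulated in DMSO/acetone/Tween 80 and diluted in water; controls got solvent only. Inoculated 24 hours later with P. teres spore suspension, then held 48 hours at 20° C, 100% RH and 8 days at 20° C, 70-80% RH.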

Data set [1] has as its system Colletotrichum lindemuthianum. The data set can be described thus: B-8. Colletotrichum lindemuthianum in vitro cell test. Format: cell-based. To be noted: 144 h, 20 ppm of active ingredient, 6 days incubation, liquid culture, absorbance, read-out: efficacy (inhibition of fungal growth). Put shortly: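 Spore suspension of C. lindemuthianum in liquid medium exposed to DMSO-solubilized compounds (final DMSO ≤1%) for 6 days. Mycelial growth read by absorbance, with inhibition calculated relative to compound-free control wells.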

The subject of another data set is Alternaria alternata. The data set can be described thus: Alternaria alternata in vitro cell test. Format: cell-based. To be noted: 120 h, 20 ppm of active ingredient, liquid culture, 5 days incubation, spectrometric measurement of mycelium growth, read-out: efficacy (inhibition of fungal growth). Put shortly: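 Liquid culture assay in which A. alternata spores in medium received DMSO-solubilized compound (final DMSO ≤1%). After 5 days, mycelium growth was measured spectrometrically. Inhibition was calculated against fungicide-free control wells.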

For the next data set, the system named is Sphaerotheca fuliginea. As to the kind of experiment: In vivo preventive test on Sphaerotheca fuliginea (powdery mildew on cucurbits). The following applies: Podosphaera fuliginea, 192 h; 500 ppm of active ingredient; preventive spray on gherkin; evaluated 8 days after inoculation; read-out: efficacy. Put shortly: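 Young gherkin plants were sprayed with compound in DMSO/acetone/Tween 80 diluted in water. They were inoculated 24 h later with a spore suspension of Sphaerotheca fuliginea. Plants were then kept for 8 days at 20 °C and 70–80% relative humidity.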

The next data set relates to Alternaria brassicae. As to the kind of experiment: In vivo preventive test on Alternaria brassicae (leaf spot on radish or cabbage). The following applies: 500 ppm of active ingredient, preventive spray on radish or cabbage, evaluated 3 to 4 days after inoculation, read-out: efficacy. Put shortly: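 Young radish or cabbage plants were sprayed with compound dissolved in DMSO/acetone/Tween 80 and diluted in water; controls received solvent only. Inoculation by spraying A. brassicae spore suspension 24 h later, then 3–4 days at 20 °C and 100% relative humidity.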

Data set [2] can be described thus: Measurement of Log P values by HPLC on reversed phase columns (EEC directive 79/831 Annex V.A8). The following applies: reversed phase HPLC column, method [a]: LC-UV, acidic range, 0.1% formic acid in water and acetonitrile as eluent. Format: physicochemical. Put shortly:
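Reversed-phase HPLC with UV detection per EEC 79/831 Annex V.A8, linear 10–95% acetonitrile gradient. Aqueous eluent: 0.1% formic acid (acidic), 0.001 M ammonium acetate (neutral), or 0.1% phosphoric acid (acidic); multiple values in one method joined by "+".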

The test system of data set [3] is Colletotrichum lindemuthianum. As to the kind of experiment: In vivo preventive test on Colletotrichum lindemuthianum (leaf spot on bean). The following applies: 168 h, 500 ppm of active ingredient, preventive spray on bean, evaluated 7 days after inoculation, read-out: efficacy. Put shortly:
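Young bean plants sprayed with compound in DMSO/acetone/Tween 80 diluted in water; solvent-only controls. Inoculated 24 h later with C. lindemuthianum spore suspension, then kept 24 h at 20 °C/100% RH and 6 days at 20 °C/90% RH.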

A further data set relates to Botrytis cinerea. As to the kind of experiment: B-11. Botrytis cinerea in vitro cell test. In kind it is cell-based. To be noted: 144 h, 20 ppm of active ingredient, 6 days incubation, liquid culture, absorbance, read-out: efficacy (inhibition of fungal growth). Put shortly:
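B. cinerea spores were grown in liquid culture with compound (DMSO ≤1% final). Mycelium growth was measured spectrometrically after 6 days, with inhibition taken as absorbance relative to untreated control wells.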

In the case of `O=C(NC[C@H](F)c1ccc(Cl)cc1Cl)c1c(Oc2cccc(C3CC3)c2F)nnc2ccccc12` (racemic) [I-072], the pest or weed control at 500 ppm (in the data set with Pyrenophora teres; in the data set with Sphaerotheca fuliginea; in the data set with Alternaria brassicae; in data set [3]) was 90 to 100% each time. Further, the inhibition at 20 ppm (in data set [1]; with Alternaria alternata; with Botrytis cinerea) was 90 to 100% throughout. In addition, the chromatographic logP (commonly lipophilicity estimated from chromatographic retention) in data set [2] worked out at 4.57.
`Cc1ccc(C(F)CNC(=O)c2c(Oc3cccc(C4CC4)c3F)nnc3c2CCCC3)c(C)c1` (stereo not drawn) [I-137]: the pest or weed control at 500 ppm fell in the range of 80 to 89% with Pyrenophora teres, 90 to 100% in the data set on Sphaerotheca fuliginea, 90 to 100% in the data set on Alternaria brassicae and 90 to 100% in data set [3]. In addition, the inhibition at 20 ppm (in data set [1]; in the data set on Alternaria alternata; in the data set on Botrytis cinerea) was 90 to 100% throughout. Also, the chromatographic logP in data set [2] is 4.
As for `Cc1ccc(C(F)(F)CNC(=O)c2c(Oc3cccc(Cl)c3F)nnc3c2CCCC3)c(Cl)c1` [I-140, 3-(3-chloro-2-fluoro-phenoxy)-N-[2-(2-chloro-4-methyl-phenyl)-2,2-difluoro-ethyl]-5,6,7,8-tetrahydrocinnoline-4-carboxamide], the pest or weed control at 500 ppm (in the data set with Pyrenophora teres; with Sphaerotheca fuliginea; in the data set with Alternaria brassicae; in data set [3]) was 90 to 100% each time. In addition, the inhibition at 20 ppm (in data set [1]; in the data set with Alternaria alternata; in the data set on Botrytis cinerea) was 90 to 100% throughout. The same molecule registered a chromatographic logP in data set [2] of 3.94.
In the case of `Cc1cc(Cl)ccc1C(F)(F)CNC(=O)c1c(Oc2cccc(Cl)c2F)nnc2c1CCC2` [I-148], the pest or weed control at 500 ppm (with Pyrenophora teres; in the data set on Sphaerotheca fuliginea; in the data set with Alternaria brassicae; in data set [3]) was 90 to 100% throughout. Also, the results for the inhibition at 20 ppm (in data set [1]; in the data set on Alternaria alternata; in the data set on Botrytis cinerea) were 80 to 89%, 90 to 100% and 90 to 100%, respectively. The chromatographic logP in data set [2] amounted to 4.
Take `Cc1ccc(C(F)(F)CNC(=O)c2c(Oc3cccc(C(F)(F)F)c3)nnc3c2CCC3)c(Cl)c1` [I-142]: the pest or weed control at 500 ppm (in the data set on Pyrenophora teres; in the data set on Sphaerotheca fuliginea; in the data set on Alternaria brassicae; in data set [3]) was 90 to 100% each time. Moreover, the inhibition at 20 ppm (in data set [1]; with Alternaria alternata; with Botrytis cinerea) was 90 to 100% each time. This molecule registered a chromatographic logP in data set [2] of 3.94.
As to `O=C(NCC(F)c1ccc(Cl)cc1Cl)c1c(Oc2cccc(C(F)(F)F)c2)nnc2c1COCC2` (stereo not drawn) [I-126], the pest or weed control at 500 ppm in the data set with Pyrenophora teres is 70 to 79%; with Sphaerotheca fuliginea, 90 to 100%; with Alternaria brassicae, 90 to 100%; in data set [3] it was 90 to 100%. Besides, the inhibition at 20 ppm (in data set [1]; in the data set with Alternaria alternata; in the data set with Botrytis cinerea) was 90 to 100% throughout. Moreover, in data set [2], the chromatographic logP came to 3.75.
Consider `Cc1cc(Cl)ccc1C(F)(F)CNC(=O)c1c(Oc2cccc(Cl)c2)nnc2c1CCCC2` [I-146], for which the pest or weed control at 500 ppm in the data set with Pyrenophora teres was in the range of 80 to 89%; with Sphaerotheca fuliginea, 90 to 100%; in the data set with Alternaria brassicae, 90 to 100%; in data set [3], 90 to 100%. The inhibition (as a rule, the percentage by which the read-out fell short of the control) at 20 ppm in data set [1] lay within 70 to 79%; with Alternaria alternata, 90 to 100%; in the data set on Botrytis cinerea it was 90 to 100%. The molecule also displayed a chromatographic logP in data set [2] of 4.11.
Take `Cc1ccc(C(F)(F)CNC(=O)c2c(Oc3cccc(C(F)F)c3)cnc3ccccc23)c(C)c1` [I-220]: the pest or weed control at 500 ppm with Pyrenophora teres lay in the range of 70 to 79%; in the data set with Sphaerotheca fuliginea, 90 to 100%; with Alternaria brassicae, 90 to 100%; in data set [3] it was 80 to 89%. In addition, the inhibition at 20 ppm (in data set [1]; with Alternaria alternata; in the data set on Botrytis cinerea) was 90 to 100% each time. In data set [2], this molecule yielded a chromatographic logP of 4.08.
As to `Cc1ccc(C(F)(F)CNC(=O)c2c(Oc3cccc(Br)c3F)nnc3c2CCCC3)c(C)c1` [I-128], the pest or weed control at 500 ppm (in the data set with Pyrenophora teres; in the data set with Sphaerotheca fuliginea; in the data set on Alternaria brassicae; in data set [3]) was 90 to 100% in each case. For the same molecule, the inhibition at 20 ppm (in data set [1]; with Alternaria alternata; in the data set on Botrytis cinerea) was 90 to 100% each time. Besides, the chromatographic logP in data set [2] came to 4.05.
`Cc1ccc(C(F)CNC(=O)c2c(Oc3cccc(C(F)(F)F)c3)nnc3c2COCC3)c(C)c1` (stereo not drawn) [I-123]: the pest or weed control at 500 ppm (in the data set on Pyrenophora teres; in the data set with Sphaerotheca fuliginea; with Alternaria brassicae; in data set [3]) was 90 to 100% each time. For the same molecule, the inhibition at 20 ppm (in data set [1]; in the data set with Alternaria alternata; in the data set on Botrytis cinerea) was 90 to 100% throughout. The chromatographic logP in data set [2] was found to be 3.61.
For `Cc1ccc(C(F)(F)CNC(=O)c2c(Oc3cccc(C4CC4)c3F)nnc3ccccc23)c(C)c1` [I-071, 3-(3-cyclopropyl-2-fluoro-phenoxy)-N-[2-(2,4-dimethyl-phenyl)-2,2-difluoro-ethyl]cinnoline-4-carboxamide], the pest or weed control at 500 ppm (with Pyrenophora teres; in the data set with Sphaerotheca fuliginea; in the data set with Alternaria brassicae; in data set [3]) was 90 to 100% throughout. Further, the inhibition at 20 ppm (in data set [1]; in the data set on Alternaria alternata; in the data set with Botrytis cinerea) was 90 to 100% each time. This molecule also had a chromatographic logP in data set [2] of 4.54.
`O=C(NCC(F)c1ccc(Cl)cc1Cl)c1c(Oc2cccc(C3CC3)c2)nnc2c1CCCC2` (stereo not drawn) [I-119, 3-(3-cyclopropylphenoxy)-N-[2-(2,4-dichlorophenyl)-2-fluoro-ethyl]-5,6,7,8-tetrahydrocinnoline-4-carboxamide]: the pest or weed control at 500 ppm (in the data set with Pyrenophora teres; in the data set on Sphaerotheca fuliginea; with Alternaria brassicae; in data set [3]) was 90 to 100% each time. For the same molecule, the inhibition at 20 ppm (in data set [1]; in the data set with Alternaria alternata; in the data set on Botrytis cinerea) was 90 to 100% in each case. The molecule also came in with a chromatographic logP in data set [2] of 4.11.
Regarding `Cc1ccc(CCNC(=O)c2c(Oc3cccc(C4CC4)c3F)nnc3ccccc23)c(C)c1` [I-070], the pest or weed control at 500 ppm (with Pyrenophora teres; in the data set with Sphaerotheca fuliginea; in the data set on Alternaria brassicae; in data set [3]) was 90 to 100% in each case. The inhibition at 20 ppm (in data set [1]; with Alternaria alternata; in the data set with Botrytis cinerea) was 90 to 100% throughout. In addition, the chromatographic logP in data set [2] is 4.42.
In the case of `O=C(NC[C@H](F)c1ccc(Cl)cc1Cl)c1c(Oc2cccc(C(F)(F)F)c2)cnc2ccoc12` (racemic) [I-067], the pest or weed control at 500 ppm in the data set with Pyrenophora teres is 80 to 89%; with Sphaerotheca fuliginea, 90 to 100%; with Alternaria brassicae, 90 to 100%; in data set [3], 90 to 100%. Moreover, the inhibition at 20 ppm (in data set [1]; with Alternaria alternata; in the data set with Botrytis cinerea) was 90 to 100% each time. For the same molecule, the chromatographic logP in data set [2] is 4.18.
In the case of `O=C(NCC(F)c1ccc(Cl)cc1Cl)c1c(Oc2cccc(C(F)(F)F)c2)nnc2c1CCC2` (stereo not drawn) [I-186], the pest or weed control at 500 ppm (in the data set on Pyrenophora teres; in the data set with Sphaerotheca fuliginea; with Alternaria brassicae; in data set [3]) was 90 to 100% each time. Besides, the inhibition at 20 ppm (in data set [1]; with Alternaria alternata; with Botrytis cinerea) was 90 to 100% each time. In addition, in data set [2], the chromatographic logP stood at 4.

(Values after patent US20230192617A1, “AZABICYCLIC(THIO)AMIDES AS FUNGICIDAL COMPOUNDS” (Bayer CropScience Aktiengesellschaft, priority 2020, published 2023).)
